These results are taken from patent publication US20220411846A1, “METHOD FOR PREDICTING THE VIRULENCE AND PATHOGENICITY OF GRAM-NEGATIVE BACTERIAL STRAINS” (priority 2019, published 2022).

The test system of the assay is strains of E. cloacae complex. In words: E. cloacae complex polymyxin B survival assay. The format is cell-based, Enterobacter cloacae complex. The note with it: 5 strains expressing 2-hydroxymyristate vs 5 strains not expressing it; 1, 3 and 10 μg/ml; 4 hours. On the procedure:
Strains of the Enterobacter complex were selected.
The Enterobacter strains preserved in a tube frozen with 30% glycerol are transplanted in a planktonic culture in 20 ml of an LB culture medium. After incubation at 37° C. overnight, 1 ml of the culture diluted to 10^7 is brought into contact with increasing concentrations of polymyxin B (1 μg/ml, 3 μg/ml and 10 μg/ml). A tube without antibiotic is added as a control.
All the tubes are incubated at 37° C. with shaking for an additional 4 hours. The cultures are then diluted and spread on LB agar Petri dishes.
The dishes are incubated at 37° C. overnight and the colonies are counted.
Percentage survival is computed as follows:
(CFU polymyxin B/CFU control)×100
5 strains of E. cloacae complex expressing 2-hydroxymyristate (2HM) and 5 strains of E. cloacae complex not expressing 2-hydroxymyristate (2HM) were exposed to different concentrations of polymyxin B for 4 hours.

For the substance polymyxin B [polymixin B], the “Survival of strains after exposure to polymyxin B (FIG. 6)” value was “presence of 2-OH myristate on Lipid A generates resistance”.
